Key:
Format in all cases: in vivo
[1] = tested on: black nightshade (Solanum nigrum L.); assay: Test Example 17: pot, soil treatment, metobromuron + chlorpropham; conditions: soil, read-out: Growth inhibition rate of black nightshade (%) Measured value
Excerpt: (§1) When the herbicidal activity in a case where two active ingredients are combined, is larger than the simple sum of the respective herbicidal activities of the two active ingredients (the expected activity), it is called a synergistic effect. The activity expected by the combination of two active ingredients can be calculated as follows (Colby S. R., “Weed”, vol. 15, p. 20-22, 1967). E=α+β−(α×β[…]) where α: growth inhibition rate when treated with x (g/ha) of herbicide X, • β: growth inhibition rate when treated with y (g/ha) of herbicide Y, • E: growth inhibition rate expected when treated with x (g/ha) of herbicide X and y (g/ha) of herbicide Y.
(§2) On the 19th day after treatment, the state of growth of barnyardgrass was visually observed and evaluated in accordance with the following standards. The growth inhibition rate (%) [measured value] and the growth inhibition rate (%) [calculated value] calculated by the Colby's method, are shown in Table 2.
(§3) Growth inhibition rate (%)=inhibition rate) (%) of 0 (equivalent to the non-treated area) to 100 (complete kill)
(§4) Soil was put into a 1/300,000 ha pot, and seeds of barnyardgrass (Echinochloa crus-galli L.) were sown. On the day after seeding, predetermined amounts of SC containing metobromuron as active ingredient (same as in Test Example 1) and EC containing chlorpropham as active ingredient (same as in Test Example 1) were diluted with water corresponding to 1,000 L per hectare and applied for soil treatment.
(§5) On the 21st day after treatment, the state of growth of barnyardgrass was visually observed and evaluated in the same manner as in Test Example 1.
The test was carried out in the same manner as in Test Example 15 except that barnyardgrass (Echinochloa crus-galli L.) was changed to black nightshade (Solanum nigrum L.), to obtain the results as shown in Table 18.

[2] = tested on: redroot pigweed (Amaranthus retroflexus L.); assay: Test Example 9: corn field, soil treatment, metobromuron + S-metolachlor; conditions: soil, read-out: Growth inhibition rate of redroot pigweed (%) Measured value
Excerpt: as §1, §2
(§6) Growth inhibition rate (%)=inhibition rate) (%) of 0 (equivalent to the non-treated area) to 100 (complete kill) […]
On the 49th day after treatment, the state of growth of redroot pigweed (Amaranthus retroflexus L.) which occurred naturally, was visually observed and evaluated in the same manner as in Test Example 1.

[3] = tested on: giant foxtail (Setaria faberi Herrm.); assay: Test Example 16: pot, soil treatment, metobromuron + chlorpropham; conditions: soil, read-out: Growth inhibition rate of giant foxtail (%) Measured value
Excerpt: as §1, §2, §3, §4, §5
The test was carried out in the same manner as in Test Example 15 except that barnyardgrass (Echinochloa crus-galli L.) was changed to giant foxtail (Setaria faberi Herrm.), to obtain the results as shown in Table 17.

[4] = tested on: barnyardgrass (Echinochloa crus-qalli L.); assay: Test Example 1: soybean field, soil treatment, metobromuron + chlorpropham; conditions: soil, read-out: Growth inhibition rate of barnyardgrass (%) Measured value
Excerpt: When the herbicidal activity in a case where two active ingredients are combined, is larger than the simple sum of the respective herbicidal activities of the two active ingredients (the expected activity), it is called a synergistic effect. The activity expected by the combination of two active ingredients can be calculated as follows (Colby S. R., “Weed”, vol. 15, p. 20-22, 1967). E=α+β−(α×β[…]) where α: growth inhibition rate when treated with x (g/ha) of herbicide X, • β: growth inhibition rate when treated with y (g/ha) of herbicide Y, • E: growth inhibition rate expected when treated with x (g/ha) of herbicide X and y (g/ha) of herbicide Y. […]
as §2, with “2. […]” for “2.”

[5] = tested on: common purslane (Portulaca oleracea L.); assay: Test Example 12: corn field, soil treatment, metobromuron + nicosulfuron; conditions: soil, read-out: Growth inhibition rate of common purslane (%) Measured value
Excerpt: as §1, §2, §6
On the 30th day after treatment, the state of growth of common purslane (Portulaca oleracea L.) which occurred naturally, was visually observed and evaluated in the same manner as in Test Example 1.

[6] = tested on: black nightshade (Solanum nigrum L.); assay: Test Example 26: pot, soil treatment, metobromuron + prosulfocarb; conditions: soil, read-out: Growth inhibition rate of black nightshade (%) Measured value
Excerpt: as §1, §2, §3
Soil was put into a 1/300,000 ha pot, and seeds of black nightshade (Solanum nigrum L.) were sown. On the day after seeding, predetermined amounts of SC containing metobromuron as active ingredient (same as in Test Example 1) and EC containing prosulfocarb as active ingredient (trade name: BOXER NYUZAI, manufactured by Syngenta) were diluted with water corresponding to 1,000 L per hectare and applied for soil treatment.
On the 21st day after treatment, the state of growth of black nightshade was visually observed and evaluated in the same manner as in Test Example 1.

[7] = tested on: common lambsquarters (Chenopodium album L.); assay: Test Example 8: corn field, soil treatment, metobromuron + S-metolachlor; conditions: soil, read-out: Growth inhibition rate of common lambsquarters (%) Measured value
Excerpt: as §1, §2, §6
On the 28th day after treatment, the state of growth of common lambsquarters (Chenopodium album L.) which occurred naturally, was visually observed and evaluated in the same manner as in Test Example 1.

[8] = tested on: barnyardgrass (Echinochloa crus-qalli L.); assay: Test Example 5: adzuki bean field, soil treatment, metobromuron + fluazifop-P-butyl; conditions: Echinochloa, soil, read-out: Growth inhibition rate of barnyardgrass (%) Measured value
Excerpt: as §1, §2, §6
On the 39th day after treatment, the state of growth of barnyardgrass (Echinochloa crus-qalli L.) which occurred naturally, was visually observed and evaluated in the same manner as in Test Example 1.

[9] = tested on: Nepalese Smartweed (Persicaria nepalensis (Meisn.) H. Gross); assay: Test Example 3: soybean field, soil treatment, metobromuron + S-metolachlor; conditions: soil, read-out: Growth inhibition rate of Nepalese Smartweed (%) Measured value
Excerpt: as §1, §2, §6
On the 50th day after treatment, the state of growth of Nepalese Smartweed (Persicaria nepalensis (Meisn.) H. Gross) which occurred naturally, was visually observed and evaluated in the same manner as in Test Example 1.

`CON(C)C(=O)Nc1ccc(Br)cc1` [Metobromuron, 3-(4-bromophenyl)-1-methoxy-1-methylurea] was tested, and the inhibition at 1000 g/ha [1] was 78%, the inhibition at 1000 g/ha [2] was 25% and the inhibition at 1000 g/ha [3] was 78%. It also gave an inhibition at 1000 g/ha [4] of 58%, an inhibition at 1000 g/ha [5] of 85% and an inhibition at 250 g/ha [6] of 25%. For the same compound, the inhibition at 375 g/ha [6] was 50%, the inhibition at 562.5 g/ha [6] was 68% and the inhibition at 1000 g/ha [7] was 78%. The inhibition at 1000 g/ha [8] was 53% and the inhibition at 1500 g/ha [9] was 30%.

From patent US9993001B2, “Herbicidal composition” (ISHIHARA SANGYO KAISHA, LTD., priority 2014, dated 2018)
